Read-outs that look alike come from different tables or passages of the source.
How the values were obtained:
[1] = test system: DU 145; experiment: cells; details: Homo sapiens
[2] = test system: WM-164; experiment: SRB cell growth inhibition (cytotoxicity) assay; type: cell-based, human; details: Homo sapiens
[3] = test system: PPC-1; experiment: cells; details: Homo sapiens
[4] = test system: LNCaP; experiment: cells; details: Homo sapiens
[5] = test system: B16-F1; experiment: SRB cell growth inhibition (cytotoxicity) assay; type: cell-based, mouse; details: Mus musculus
Description: (§1) The only compounds which belong to the invention are the ones falling under the scope of formula (XI).

[6] = test system: A375; experiment: SRB cell growth inhibition (cytotoxicity) assay; type: cell-based, human; details: Homo sapiens
[7] = test system: PC-3; experiment: cells; details: Homo sapiens
Description: as §1
Cells were stained with SRB solution.
Cells. […] Cells between the third and fifth passages were used for experiments.
Cell growth inhibition studies. […] Cells were stained with sulphorhodamine B (SRB) solution.

[8] = DU-145, 96 h, read-out: IC50 (nM), Du 145
[9] = WM164, SRB, 48 h, Tables 11, 12, read-out: IC50 (nM), WM164
[10] = PPC-1, 96 h, read-out: IC50 (nM), PPC-1
[11] = 96 h, read-out: IC50 (nM), LNCaP
[12] = B16-F1, SRB, 48 h, Table 11, read-out: IC50 (nM), B16-F1
[13] = A-375, SRB, 48 h, Table 11, read-out: IC50 (nM), A375
[14] = PC-3, 96 h, read-out: IC50 (nM), PC-3
[15] = DU-145, 96 h, read-out: IC50 ± SEM (nM) Du 145
[16] = WM164 melanoma cells, 48 h, SRB, read-out: IC50 ± SEM (nM) WM164
[17] = PPC-1, 96 h, read-out: IC50 ± SEM (nM), PPC-1
[18] = 96 h, read-out: IC50 ± SEM (nM), LNCaP
[19] = B16-F1 melanoma cells, 48 h, SRB, read-out: IC50 ± SEM (nM) B16-F1
[20] = A-375, A375 melanoma cells, 48 h, SRB, read-out: IC50 ± SEM (nM) A375
[21] = PC-3, 96 h, read-out: IC50 ± SEM (nM), PC-3

Row | SMILES | IC50 [1, 15] [nM] | IC50 [2, 16] [nM] | IC50 [3, 17] [nM] | IC50 [4, 18] [nM] | IC50 [5, 19] [nM] | IC50 [6, 20] [nM] | IC50 [7, 21] [nM] | further results
1 | O=C(c1ccc(F)cc1)c1c[nH]c(-c2ccccc2)n1 [12af, (4-fluorophenyl)(2-phenyl-1H-imidazol-4-yl)methanone] | – | – | – | – | – | – | – | IC50 [1, 8]: 846 nM; IC50 [2, 9]: 630 nM; IC50 [3, 10]: 575 nM; IC50 [4, 11]: 613 nM; IC50 [5, 12]: 930 nM; IC50 [6, 13]: 580 nM; IC50 [7, 14]: 2200 nM
2 | Cc1ccc(C(=O)c2c[nH]c(-c3ccccc3)n2)cc1 [12ah, (2-phenyl-1H-imidazol-4-yl)(p-tolyl)methanone] | – | – | – | – | – | – | – | IC50 [1, 8]: > 10000 nM; IC50 [2, 9]: > 10000 nM; IC50 [3, 10]: > 10000 nM; IC50 [4, 11]: > 10000 nM; IC50 [5, 12]: > 10000 nM; IC50 [6, 13]: > 10000 nM; IC50 [7, 14]: > 10000 nM
3 | Cc1cccc(C(=O)c2c[nH]c(-c3ccccc3)n2)c1 [12ai, (2-phenyl-1H-imidazol-4-yl)(m-tolyl)methanone] | – | – | – | – | – | – | – | IC50 [1, 8]: > 10000 nM; IC50 [2, 9]: > 10000 nM; IC50 [3, 10]: > 10000 nM; IC50 [4, 11]: > 10000 nM; IC50 [5, 12]: > 10000 nM; IC50 [6, 13]: > 10000 nM; IC50 [7, 14]: > 10000 nM
4 | COc1ccc(-c2nc(C(=O)c3ccc(F)cc3)cn2C)cc1 [12cba, (4-fluorophenyl)(2-(4-methoxyphenyl)-1-methyl-1H-imidazol-4-yl)methanone] | > 10000 | > 10000 | > 10000 | > 10000 | > 10000 | > 10000 | > 10000 | –
5 | COc1cc(C(=O)c2cn(C)c(-c3ccc(C)cc3)n2)cc(OC)c1OC [12dab, (1-methyl-2-(p-tolyl)-1H-imidazol-4-yl)(3,4,5-trimethoxyphenyl)methanone] | 36 | – | 28 | 32 | – | – | 46 | IC50 ([2]; WM164, 48 h, read-out: IC50 ± SEM (nM) WM164): 40 nM; IC50 ([5]; B16-F1, 48 h, read-out: IC50 ± SEM (nM) B16-F1): 134 nM; IC50 ([6]; A-375, 48 h, read-out: IC50 ± SEM (nM) A375): 32 nM
6 | COc1cc(C(=O)c2c[nH]c(-c3ccc(C)cc3)n2)cc(OC)c1O [12dc, (4-hydroxy-3,5-dimethoxyphenyl)(2-(p-tolyl)-1H-imidazol-4-yl)methanone] | 174 | 123 | 110 | 134 | 387 | 105 | 127 | –
7 | COc1ccc(S(=O)(=O)n2cc(C(=O)c3ccc(F)cc3)nc2-c2ccc(N(C)C)cc2)cc1 [12gba, (2-(4-(dimethylamino)phenyl)-1-((4-methoxyphenyl)sulfonyl)-1H-imidazol-4-yl)(4-fluorophenyl)methanone] | 129 | ~100 | 63.4 | 73.2 | ~100 | ~100 | 44.1 | –
8 | COc1cc(C(=O)c2c[nH]c(-c3ccc(Br)cc3)n2)cc(OC)c1OC [12la, (2-(4-bromophenyl)-1H-imidazol-4-yl)(3,4,5-trimethoxyphenyl)methanone] | 49 | 36 | 33 | 34 | 74 | 32 | 36 | –
9 | COc1cc(C(=O)c2c[nH]c(-c3ccc(C(F)(F)F)cc3)n2)cc(OC)c1OC [12pa, (2-(4-(trifluoromethyl)phenyl)-1H-imidazol-4-yl)(3,4,5-trimethoxyphenyl)methanone] | 174 | 175 | 110 | 134 | 469 | 163 | 127 | –
10 | O=C(c1cc(O)c(O)c(O)c1)c1c[nH]c(-c2cc(O)c(O)c(O)c2)n1 [13ea, (3,4,5-trihydroxyphenyl)(2-(3,4,5-trihydroxyphenyl)-1H-imidazol-4-yl)methanone] | > 10000 | > 10000 | > 10000 | > 10000 | > 10000 | > 10000 | > 10000 | –
11 | COc1cc(C(=O)c2c[nH]c(-c3ccc4[nH]c(C(=O)c5cc(OC)c(OC)c(OC)c5)cc4c3)n2)cc(OC)c1OC [15xaa, (5-(4-(3,4,5-Trimethoxybenzoyl)-1H-imidazol-2-yl)-1H-indol-2-yl)(3,4,5-trimethoxyphenyl)methanone] | – | – | – | – | – | – | – | IC50 ([1]; DU-145, read-out: IC50 (nM), DU 145): 5920 nM; IC50 ([2]; WM164, read-out: IC50 (nM), WM164): 1700 nM; IC50 ([3]; PPC-1, read-out: IC50 (nM), PPC-1): 4580 nM; IC50 ([4]; read-out: IC50 (nM), LNCaP): 1070 nM; IC50 ([5]; B16-F1, read-out: IC50 (nM), B16-F1): 1390 nM; IC50 ([6]; A-375, read-out: IC50 (nM), A375): 1800 nM; IC50 ([7]; PC-3, read-out: IC50 (nM), PC-3): 2630 nM

Reference: patent EP2608671B1, “COMPOUNDS FOR TREATMENT OF CANCER” (Gtx, Inc., priority 2010, dated 2012)
